Data reported in PubChem BioAssay (NCI).
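Cells were grown in 96-well plates and exposed to each compound for 48 hours at five concentrations; endpoints were interpolated linearly between bracketing concentrations, or set to the highest concentration if not reached. Here, GI50 denotes the concentration required for 50% inhibition of growth. TGI is the concentration that stops growth completely.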

Columns and labels:
Experiment in all cases: NCI tumour cell line growth inhibition, 48 h
[1] = system: LOX IMVI melanoma
[2] = system: KM12 colon
[3] = system: HCT-15 colon
[4] = system: OVCAR-5 ovarian
[5] = system: T-47D breast
[6] = system: MALME-3M melanoma
[7] = system: PC-3 prostate
[8] = system: U251 CNS
[9] = system: HCT-116 colon
[10] = system: NCI-H226 lung
[11] = system: NCI-H23 lung
[12] = system: HL-60(TB) leukemia
[13] = system: NCI/ADR-RES ovarian
[14] = system: SK-MEL-5 melanoma
[15] = system: SF-295 CNS
[16] = system: DU-145 prostate
[17] = system: MDA-MB-435
[18] = system: K-562 leukemia
[19] = system: SK-MEL-2 melanoma
[20] = system: UACC-62 melanoma
[21] = system: COLO 205 colon
[22] = system: IGROV1 ovarian
[23] = system: HS 578T breast
[24] = system: HOP-92 NSCLC
[25] = system: 786-0 renal
[26] = system: CCRF-CEM leukemia
[27] = system: RPMI-8226 leukemia
[28] = system: UACC-257 melanoma
[29] = system: HOP-62 NSCLC
[30] = system: M14 melanoma
[31] = system: A498 renal
[32] = system: OVCAR-8 ovarian
[33] = system: BT-549 breast
[34] = system: CAKI-1 renal
[35] = system: HCC-2998 colon
[36] = system: TK-10 renal
[37] = system: MDA-MB-231 breast
[38] = system: MCF7 breast
[39] = system: SK-MEL-28 melanoma
[40] = system: A549 NSCLC
[41] = system: NCI-H522 lung
[42] = system: HT29 colon
[43] = system: SNB-19 CNS
[44] = system: SF-539 CNS
[45] = system: SNB-75 CNS
[46] = system: RXF 393 renal
[47] = system: SK-OV-3 ovarian
[48] = system: ACHN renal
[49] = system: OVCAR-3 ovarian
[50] = system: SW-620 colon
[51] = system: UO-31 renal
[52] = system: NCI-H460 lung
[53] = system: SR leukemia
[54] = system: SN12C renal
[55] = system: OVCAR-4 ovarian
[56] = system: SF-268 CNS
[57] = system: MOLT-4 leukemia

CC(=O)N[C@@H](Cc1ccc(OP(=O)(O)O)cc1)C(=O)N[C@H]1CCC(=O)N2CCC[C@@H](C(=O)Nc3cccc4ccccc34)N2C1=O
GI50 [1]: > 25 µM | TGI [1]: > 25 µM | GI50 [2]: > 25 µM | TGI [2]: > 25 µM | GI50 [3]: > 25 µM | TGI [3]: > 25 µM | GI50 [4]: > 25 µM | TGI [4]: > 25 µM | GI50 [5]: > 25 µM | TGI [5]: > 25 µM | GI50 [6]: > 25 µM | TGI [6]: > 25 µM | GI50 [7]: > 25 µM | TGI [7]: > 25 µM | GI50 [8]: > 25 µM | TGI [8]: > 25 µM | GI50 [9]: > 25 µM | TGI [9]: > 25 µM | GI50 [10]: > 25 µM | TGI [10]: > 25 µM | GI50 [11]: > 25 µM | TGI [11]: > 25 µM | GI50 [12]: > 25 µM | TGI [12]: > 25 µM | GI50 [13]: > 25 µM | TGI [13]: > 25 µM | GI50 [14]: > 25 µM | TGI [14]: > 25 µM | GI50 [15]: > 25 µM | TGI [15]: > 25 µM | GI50 [16]: > 25 µM | TGI [16]: > 25 µM | GI50 [17]: > 25 µM | TGI [17]: > 25 µM | GI50 [18]: > 25 µM | TGI [18]: > 25 µM | GI50 [19]: > 25 µM | TGI [19]: > 25 µM | GI50 [20]: > 25 µM | TGI [20]: > 25 µM | GI50 [21]: > 25 µM | TGI [21]: > 25 µM | GI50 [22]: > 25 µM | TGI [22]: > 25 µM | GI50 [23]: > 25 µM | TGI [23]: > 25 µM | GI50 [24]: > 23.9 µM | TGI [24]: > 25 µM | GI50 [25]: > 25 µM | TGI [25]: > 25 µM | GI50 [26]: > 25 µM | TGI [26]: > 25 µM | GI50 [27]: > 25 µM | TGI [27]: > 25 µM | GI50 [28]: > 25 µM | TGI [28]: > 25 µM | GI50 [29]: > 25 µM | TGI [29]: > 25 µM | GI50 [30]: > 25 µM | TGI [30]: > 25 µM | GI50 [31]: > 25 µM | TGI [31]: > 25 µM | GI50 [32]: > 25 µM | TGI [32]: > 25 µM | GI50 [33]: > 25 µM | TGI [33]: > 25 µM | GI50 [34]: > 25 µM | TGI [34]: > 25 µM | GI50 [35]: > 25 µM | TGI [35]: > 25 µM | GI50 [36]: > 25 µM | TGI [36]: > 25 µM | GI50 [37]: > 25 µM | TGI [37]: > 25 µM | GI50 [38]: > 25 µM | TGI [38]: > 25 µM | GI50 [39]: > 25 µM | TGI [39]: > 25 µM | GI50 [40]: > 25 µM | TGI [40]: > 25 µM | GI50 [41]: > 25 µM | TGI [41]: > 25 µM | GI50 [42]: > 25 µM | TGI [42]: > 25 µM | GI50 [43]: > 25 µM | TGI [43]: > 25 µM | GI50 [44]: > 25 µM | TGI [44]: > 25 µM | GI50 [45]: > 19.8 µM | TGI [45]: > 25 µM | GI50 [46]: > 25 µM | TGI [46]: > 25 µM | GI50 [47]: > 25 µM | TGI [47]: > 25 µM | GI50 [48]: > 25 µM | TGI [48]: > 25 µM | GI50 [49]: > 25 µM | TGI [49]: > 25 µM | GI50 [50]: > 25 µM | TGI [50]: > 25 µM | GI50 [51]: > 21.4 µM | TGI [51]: > 25 µM | GI50 [52]: > 25 µM | TGI [52]: > 25 µM | GI50 [53]: > 25 µM | TGI [53]: > 25 µM | GI50 [54]: > 25 µM | TGI [54]: > 25 µM | GI50 [55]: > 25 µM | TGI [55]: > 25 µM | GI50 [56]: > 25 µM | TGI [56]: > 25 µM | GI50 [57]: > 25 µM | TGI [57]: > 25 µM
